# Test results reported in ChEMBL document CHEMBL4002627, “Quinolidene based monocarbonyl curcumin analogues as promising antimycobacterial agents: Synthesis and molecular docking study” (Bioorg Med Chem Lett, 2017).
# What was measured:
# [1] = system: Staphylococcus aureus; assay: Antibacterial activity against Staphylococcus aureus ATCC 29213 after 12 hrs; assay type: functional; conditions: ATCC 29213, 12 h
# [2] = system: Pseudomonas fluorescens; assay: Antibacterial activity against Pseudomonas fluorescens ATCC 13525 after 8 hrs; assay type: functional; conditions: ATCC 13525, 8 h
# [3] = Cytotoxicity against human HCT116 cells assessed as growth inhibition at 3 ug/ml after 48 hrs by MTT assay relative to control; assay type: cell-based, HCT-116; conditions: read-out: GI
# [4] = (§1) Cytotoxicity against human HCT116 cells assessed as growth inhibition after 48 hrs by MTT assay; assay type: cell-based, HCT-116; conditions: HCT116 cells
# [5] = system: HCT-116; assay: as §1; assay type: cell-based; conditions: hct-116, 48 h
# [6] = system: Bacillus subtilis; assay: Antibacterial activity against Bacillus subtilis ATCC 23857 after 12 hrs; assay type: functional; conditions: ATCC 23857, 12 h
# [7] = Cytotoxicity against human HCT116 cells assessed as growth inhibition at 30 ug/ml after 48 hrs by MTT assay relative to control; assay type: cell-based, HCT-116; conditions: read-out: GI
# [8] = system: Mycobacterium tuberculosis; assay: Antimycobacterial activity against dormant state of Mycobacterium tuberculosis H37Ra assessed as growth inhibition at 30 ug/ml after 12 days by XTT reduction menadione assay relative to control; assay type: functional; conditions: 288 h, read-out: GI
# [9] = Cytotoxicity against human A549 cells assessed as growth inhibition at 10 ug/ml after 48 hrs by MTT assay relative to control; assay type: cell-based; conditions: read-out: GI
# [10] = system: Mycobacterium tuberculosis; assay: Antimycobacterial activity against dormant state of Mycobacterium tuberculosis H37Ra assessed as growth inhibition at 10 ug/ml after 12 days by XTT reduction menadione assay relative to control; assay type: functional; conditions: 288 h, read-out: GI
# [11] = system: Mycobacterium tuberculosis; assay: Antimycobacterial activity against dormant state of Mycobacterium tuberculosis H37Ra assessed as growth inhibition at 3 ug/ml after 12 days by XTT reduction menadione assay relative to control; assay type: functional; conditions: 288 h, read-out: GI
# [12] = Cytotoxicity against human MCF7 cells assessed as growth inhibition at 10 ug/ml after 48 hrs by MTT assay relative to control; assay type: cell-based; conditions: read-out: GI
# [13] = Cytotoxicity against human A549 cells assessed as growth inhibition at 30 ug/ml after 48 hrs by MTT assay relative to control; assay type: cell-based; conditions: read-out: GI
# [14] = system: Escherichia coli; assay: Antibacterial activity against Escherichia coli ATCC […] after 8 hrs; assay type: functional
# [15] = Cytotoxicity against human MCF7 cells assessed as growth inhibition at 3 ug/ml after 48 hrs by MTT assay relative to control; assay type: cell-based; conditions: read-out: GI
# [16] = system: Mycobacterium tuberculosis; assay: Antimycobacterial activity against dormant state of Mycobacterium tuberculosis H37Ra by two fold dilution method; assay type: functional
# [17] = Cytotoxicity against human MCF7 cells assessed as growth inhibition at 30 ug/ml after 48 hrs by MTT assay relative to control; assay type: cell-based; conditions: read-out: GI
# [18] = system: A549; assay: (§2) Cytotoxicity against human A549 cells assessed as growth inhibition after 48 hrs by MTT assay; assay type: cell-based; conditions: a549, 48 h
# [19] = as §2; assay type: cell-based; conditions: A549 cells
# [20] = system: MCF7; assay: (§3) Cytotoxicity against human MCF7 cells assessed as growth inhibition after 48 hrs by MTT assay; assay type: cell-based; conditions: mcf7, 48 h
# [21] = as §3; assay type: cell-based; conditions: MCF7 cells
# [22] = Cytotoxicity against human HCT116 cells assessed as growth inhibition at 10 ug/ml after 48 hrs by MTT assay relative to control; assay type: cell-based, HCT-116; conditions: read-out: GI
# [23] = Cytotoxicity against human A549 cells assessed as growth inhibition at 3 ug/ml after 48 hrs by MTT assay relative to control; assay type: cell-based; conditions: read-out: GI
Compound,MIC50 [1] [µg/mL],MIC90 [1] [µg/mL],MIC50 [2] [µg/mL],MIC90 [2] [µg/mL],"inhibition at 48 h, 3 ug/ml [3] [%]",GI50 at 48 h [4] [µg/mL],GI90 [5] [µg/mL],MIC50 [6] [µg/mL],MIC90 [6] [µg/mL],"inhibition at 48 h, 30 ug/ml [7] [%]",inhibition of growth at 30 µg/mL [8] [%],"inhibition at 48 h, 10 ug/ml [9] [%]",inhibition of growth at 10 µg/mL [10] [%],inhibition of growth at 3 µg/mL [11] [%],"inhibition at 48 h, 10 ug/ml [12] [%]","inhibition at 48 h, 30 ug/ml [13] [%]",MIC50 [14] [µg/mL],MIC90 [14] [µg/mL],"inhibition at 48 h, 3 ug/ml [15] [%]",MIC50 [16] [µg/mL],further results
CN1C/C(=C\c2cc3cc(Cl)ccc3nc2Cl)C(=O)/C(=C/c2cc3cc(Cl)ccc3nc2Cl)C1,> 30,> 30,> 30,> 30,2,> 100,> 100,> 30,> 30,11.7,43.1,48.9,7.2,35.4,42.8,48.9,> 30,> 30,22.8,> 30,"MIC90 [16]: > 30 µg/mL; inhibition at 48 h, 30 ug/ml [17]: 58.7%; GI90 [18]: > 100 µg/mL; GI50 at 48 h [19]: > 100 µg/mL; GI90 [20]: > 100 µg/mL; GI50 at 48 h [21]: 29.8 µg/mL; inhibition at 48 h, 10 ug/ml [22]: 11.9%; inhibition at 48 h, 3 ug/ml [23]: 0%"
COc1ccc2nc(Cl)c(/C=C3\CNC/C(=C\c4cc5cc(OC)ccc5nc4Cl)C3=O)cc2c1,> 30,> 30,> 30,> 30,0,9.83,> 100,> 30,> 30,0,95.4,0,44.7,31.2,32.5,0,> 30,> 30,4.7,12.1,"MIC90 [16]: 27.9 µg/mL; inhibition at 48 h, 30 ug/ml [17]: 27.4%; GI90 [18]: > 100 µg/mL; GI50 at 48 h [19]: > 100 µg/mL; GI90 [20]: > 100 µg/mL; GI50 at 48 h [21]: 8.93 µg/mL; inhibition at 48 h, 10 ug/ml [22]: 0%; inhibition at 48 h, 3 ug/ml [23]: 0%"
Cc1ccc2cc(/C=C3\CN(C)C/C(=C\c4cc5ccc(C)cc5nc4Cl)C3=O)c(Cl)nc2c1,> 30,> 30,> 30,> 30,12.9,> 100,> 100,> 30,> 30,27.4,98.6,34.6,81.7,-17.1,52,45.7,> 30,> 30,46.1,7.7,"MIC90 [16]: 20 µg/mL; inhibition at 48 h, 30 ug/ml [17]: 63.7%; GI90 [18]: > 100 µg/mL; GI50 at 48 h [19]: > 100 µg/mL; GI90 [20]: > 100 µg/mL; GI50 at 48 h [21]: 8.23 µg/mL; inhibition at 48 h, 10 ug/ml [22]: 13.7%; inhibition at 48 h, 3 ug/ml [23]: 30.2%"
